Results reported in patent US20200206172A1, “COMPOSITIONS AND METHODS FOR TREATING NEURODEGENERATIVE DISORDERS” (GNT Pharma Co., Ltd., priority 2018, published 2020).
Where “and” joins values, the source holds several entries; their conditions need not be identical. Equal entries are not always repeated.

Experiments:
G93A mice = test: Animal model of amyotrophic lateral sclerosis (G93A mice), preliminary data; assay type: in vivo; conditions: oral, 2.5 mg/kg
dogs with CDS [1] = test: Canine dementia scale (CADES) questionnaire in companion dogs with CDS; assay type: in vivo, dog
Text: (§1) The companion animals tested in the study were 22 elderly dogs (12-19 years of age) diagnosed with CDS. Each dog enrolled for the present study met the following criteria: body weight <12 kg (regardless of gender), dogs which had lived with the owner for at least 90 days, dogs which were able to take oral medicine, dogs with CDS diagnosed by investigator (canine cognitive dysfunction rating (CCDR) scale ≥50 points) and dogs with informed consent of their owners. Dogs with a pregnancy or lactating, with hypersensitivity against salicylic acid derivatives, or with the underlying disease (i.e. renal dysfunction, visual loss, heart failure, or renal failure) were excluded. In addition, dogs which had participated any other clinical trials within 90 days or dogs which had not only CDS but also other neurodegenerative diseases were excluded.
(§2) This study was a randomized, blind, placebo-controlled clinical trial to investigate the efficacy and safety of Compound 2 in dogs with CDS. To investigate the efficacy of Compound 2, two questionnaires were evaluated: CCDR scale and canine dementia scale (CADES). To measure the safety of Compound 2, not only the occurrence of adverse events was investigated but also the vital signs, physical examination, and blood tests were performed in the dogs. Compound 2 was prescribed for oral administration of 10 mg/kg once-daily dosing for 8 weeks. Subjects 3 and 4 received Compound 2 additionally for 4 weeks with approval of the principal investigator. Instead of Compound 2, subjects 18-22 received placebo for 8 weeks. In this study, we allowed the dogs to be administered Compound 2 in various ways: mix with dietary supplement (subjects 1 and 3), mix with food (subjects 2 and 6), dissolve in water (subject 4), or capsule with water (subject 5), or chewable tablet with water (subjects 7-22).
(§3) Rating scales are essential tools for CDS diagnosis, staging, assessment, and careful monitoring of the disease symptoms as well as for evaluation of the efficacy of therapeutic strategies. Several rating scales have been developed during the last decade e.g. CCDR scale. To assess the severity of CDS in this study, two questionnaires (CCDR scale and CADES) were performed before and after oral administration of Compound 2 by a veterinarian. Questionnaires include a broad range of items measuring appetite, drinking behavior, barking, elimination behavior, day/night sleeping pattern, aimless behavior, adaptive capabilities, social behavior, perceptual ability, disorientation, and memory.
To ensure and confirm the CCDR scale, we used an additional questionnaire, CADES which contains 17 items distributed into four domains, related to changes in dogs' behaviors: spatial orientation, social interaction, sleep-wake cycle, and house soiling (Table 6). It can be classified according to various stages of cognitive impairment: mild, moderate, and severe cognitive impairment. It is known well that CADES is also suitable for long-term assessment of the progression of cognitive impairment in canine, and potentially as efficacy readout for treatments.

dogs with CDS [2] = test: CCDR scale questionnaire in companion dogs with CDS, randomized blind placebo-controlled clinical trial; assay type: in vivo, dog; parameters: key to CCDR score, 4 weeks / CCDR score, 8 weeks / CCDR score, 12 weeks / CCDR score, 16 weeks (discontinuation) / CCDR score, 20 weeks (discontinuation) / CCDR score, 12 weeks (discontinuation): CCDR scale points (13 items); ≥50 indicates CDS
Text: as §1, §2, §3
CCDR scale consists of 13 items based on CDS symptoms (Table 2). The 13 kinds of behaviors included various problems related to orientation (staring blankly, getting lost in the home), memory (lack of recognition of owners, house-soiling), apathy (reduced time spent active, avoiding contact with owners), impaired olfaction (difficulty finding food), and locomotion. These problems compromise both the dog's quality of life and the dog-owner bond. Scores ≥50 on the CCDR are indicative of CDS in the aged dogs (12-19 years of age). In this study, we compared the CCDR scores before and after administration of Compound 2 in dogs with CDS.

APP/PS1 mice = test: Animal model of AD (APP/PS1 mice), preliminary data; assay type: in vivo; conditions: oral, 2.5 mg/kg
[3] = Pharmacokinetic study in beagle dogs; assay type: in vivo; conditions: dog, plasma, oral, 20 mg/kg/day
Method: Based upon the safety and pharmacokinetic profile of Compound 2, a dose of 10 mg/kg/day was chosen to investigate safety and efficacy of Compound 2 in canine CDS.

[4] = test system: mouse model of amyotrophic lateral sclerosis; conditions: previous study [20]; cited from earlier work
[5] = Pharmacokinetics after oral administration in mice; assay type: in vivo; conditions: mouse, plasma, 2.5 mg/kg
in vivo = test: in vivo; parameters: species or system beagle dogs; conditions: both sexes, beagle, dog, po
Method: The systemic toxic potential of Compound 2 in beagle dogs was investigated in Huntington Life Science, a large non-clinical contract research organization in Cambridgeshire, England. Three groups each comprising three males and three females, received Compound 2 at doses of 20, 65, or 200 mg/kg/day for 13 weeks. […] Consequently, 200 mg/kg/day was considered the no-observed-adverse-effect level (NOAEL) in dogs.

dogs with CDS [6] = test: Safety assessment in dogs with CDS; assay type: in vivo; conditions: 10 mg/kg oral once daily
Method: as §2
During this study, the safety of Compound 2 in dogs with CDS was evaluated at every visit.

[7] = target: T1, microsomal prostaglandin E(2) synthase-1 (mPGES-1) (Homo sapiens, UniProt O14684); conditions: previous study [20]; cited from earlier work
T1 sequence (O14684 1-152): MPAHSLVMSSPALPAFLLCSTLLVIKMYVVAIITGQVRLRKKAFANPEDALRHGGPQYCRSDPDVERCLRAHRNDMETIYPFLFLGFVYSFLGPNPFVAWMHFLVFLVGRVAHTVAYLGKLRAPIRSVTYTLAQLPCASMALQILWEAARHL

Stability test = assay type: physicochemical
Method: In stability test, Compound 2 was stable at 25° C. for at least 60 months. Additionally, the capsule and chewable formulations of Compound 2 were stable at 25° C. for at least 24 and 12 months, respectively.

moderate-to-severe AD = conditions: cited from earlier work
CDS dogs = conditions: literature [17-19]; effect in most dogs disappeared at 8 weeks after treatment; cited from earlier work
[8] = 10 mg/kg oral once daily, per individual dog
[9] = change vs 0 week, per individual dog
[10] = change vs 0 week, 10 mg/kg oral once daily, per individual dog, 10 mg/kg

## O=C(O)c1cc(NCCc2ccc(C(F)(F)F)cc2)ccc1O [Compound 2, 2-hydroxy-5-[2-(4-trifluoromethyl-phenyl)-ethylamino]-benzoic acid]
G93A mice
  improvement in cognitive and motor functions: maximally beneficial effects
Dogs with CDS [1]; [8]
  CADES score of house soiling (items 13-17), 4 weeks: 5 (2×) and 9 and 16 and 14 and 22 (2×) and 11 and 3 and 19 (2×) and 17 and 10 and 25 and 18 and 4 and 0
  CADES score of house soiling (items 13-17), 8 weeks: 4 (2×) and 0 (3×) and 8 and 12 and 18 and 14 and 21 and 20 and 5 and 19 and 17 and 25
  CADES score of sleep-wake cycles (items 11-12), 4 weeks: 18 (4×) and 6 and 16 (2×) and 20 (3×) and 0 and 10 (2×) and 8 (2×) and 14 and 4
  CADES score of sleep-wake cycles (items 11-12), 8 weeks: 10 and 0 (4×) and 14 and 12 (3×) and 20 (2×) and 16 (2×) and 8 and 6
  CADES score of social interaction (items 6-10), 4 weeks: 5 (2×) and 14 (3×) and 17 (2×) and 13 (3×) and 0 and 25 and 15 and 10 and 18 and 20 and 19
  CADES score of social interaction (items 6-10), 8 weeks: 15 (2×) and 5 and 10 (2×) and 14 and 11 and 19 and 4 and 24 and 16 and 18 and 9 and 13 and 3
  CADES score of spatial orientation (items 1-5), 4 weeks: 5 (3×) and 20 (3×) and 18 (2×) and 16 and 17 and 24 (3×) and 25 (2×) and 13 and 21
  CADES score of spatial orientation (items 1-5), 8 weeks: 9 and 15 (3×) and 13 (2×) and 17 and 25 and 0 and 24 and 20 (2×) and 22 and 23 and 4
  Total CADES score, 4 weeks: 33 and 49 and 67 and 65 and 68 and 69 and 8 and 89 and 64 and 57 and 66 and 55 and 90 and 51 and 14
  Total CADES score, 8 weeks: 38 and 20 and 45 and 53 and 58 and 78 and 4 and 85 and 55 and 63 and 57 and 64 and 40 and 67 and 7
Dogs with CDS [1]; 4 weeks after administration, 10 of 17 dogs
  companion dogs showing improvement in spatial disorientation: 59%
Dogs with CDS [1]; 8 of 15 dogs
  companion dogs showing further improvement in social interaction at 8 weeks compared with 4 weeks: 53%
Dogs with CDS [1]; 8 weeks after administration, 10 of 15 dogs
  companion dogs significantly improved in sleep-wake cycle (item 11): 67%
Dogs with CDS [1]; 8 weeks after oral administration
  cognitive function by total CADES score: significant improvement in cognitive function was observed from severe to moderate, weak, or normal level
Dogs with CDS [1]; 8 weeks after oral administration, 9 of 15 dogs
  companion dogs with beneficial effects on spatial orientation: 60%
Dogs with CDS [1]; [9]
  CADES score of house soiling (items 13-17), change, 4 weeks: 1 and −6 and −2 (2×) and −5 (2×) and −1 (2×) and −4 and −15 and 0 (5×) and −3 and −10
  CADES score of house soiling (items 13-17), change, 8 weeks: 0 (3×) and −15 and −10 (2×) and −7 and −5 and −1 (2×) and −18 and 1 and −2 and −3 and −6
  CADES score of sleep-wake cycles (items 11-12), change, 4 weeks: −2 (5×) and −4 and 4 (2×) and 0 (6×) and −18 and −6 and −12
  CADES score of sleep-wake cycles (items 11-12), change, 8 weeks: −10 (3×) and −4 (2×) and −2 (2×) and −6 and 0 (3×) and −18 and 2 and −14 and −16
  CADES score of social interaction (items 6-10), change, 4 weeks: −10 and 0 (6×) and −1 (3×) and −2 (2×) and −4 and −14 and −5 and −7 and −11
  CADES score of social interaction (items 6-10), change, 8 weeks: 0 (3×) and −9 and −8 and −5 and −2 and 1 and −10 and −1 (2×) and −3 and −6 and −7 and −13
  CADES score of spatial orientation (items 1-5), change, 4 weeks: −9 and −3 (2×) and −1 (3×) and −2 (2×) and 2 and −11 and 0 (4×) and 3 and 5 and −19
  CADES score of spatial orientation (items 1-5), change, 8 weeks: −5 and −8 and −6 and −3 (2×) and −1 and 3 (2×) and −16 and 0 (4×) and −2 and −20
  Total CADES score change, 4 weeks: −20 and −13 and −6 (2×) and −5 (2×) and −4 and −58 and 0 (2×) and −2 and −8 and 5 (2×) and −11 and −15 and −52
  Total CADES score change, 8 weeks: −15 and −42 and −28 and −17 and −14 and 3 and −62 and −4 and −9 and −6 and −2 and −10 (2×) and −18 and −59
Dogs with CDS [2]; 10 mg/kg oral once daily, 4 weeks of administration, individual dog (subject No.)
  CCDR score, 4 weeks: 38 and 40 and 55 and 56 and 53 and 54 and 60 and 52 and 50 and 43 and 63 and 49 and 30
Dogs with CDS [2]; 10 mg/kg oral once daily, 8 weeks of administration, per individual dog
  CCDR score, 8 weeks: 34 and 46 and 41 and 51 and 54 and 27 and 50 and 53 and 59 and 43 and 30 and 42
Dogs with CDS [2]; aged companion dogs with severe CDS, oral
  beneficial effects maintained after the last administration: at least 4 weeks
Dogs with CDS [2]; [10]
  CCDR score change, 4 weeks: −22 and −11 (3×) and −9 (2×) and −12 (2×) and −18 and −5 and −1 and −7 and −6 and −16 and −10 and −44 and −13
  CCDR score change, 8 weeks: −26 and −5 and −23 and −16 and −11 and −40 and −24 and −6 and −2 and −10 and −9 and −7 and −19 and −44 and −20
Dogs with CDS [2]; subjects 3 and 4, 12-week administration
  CCDR score, 12 weeks: 32 and 43
Dogs with CDS [2]; subjects 3 and 4, 4 weeks after discontinuation of 12-week administration
  CCDR score, 16 weeks (discontinuation): 38 and 44
Dogs with CDS [2]; subjects 3 and 4, 8 weeks after discontinuation of 12-week administration
  CCDR score, 20 weeks (discontinuation): 36 and 43
Dogs with CDS [2]; subjects 7, 8, 10, 11, 4 weeks after discontinuation of 8-week administration
  CCDR score, 12 weeks (discontinuation): 48 and 50 and 54
Dogs with CDS [2]; within 4 weeks of oral administration
  cognitive function on the CCDR scale: near normal cognitive function
APP/PS1 mice
  improvement in cognitive and motor functions: maximally beneficial effects
[3]
  AUC: 75100 ng·h/mL
  Cmax: 10600 ng/mL
[4]
  motor function activity and life span: increases of motor function activity and life span
[5]; read-out: AUC (area under the plasma level-time curve)
  AUC: 9610 ± 1380 ng·h/mL
[5]; read-out: Cmax (mean maximum plasma concentration)
  Cmax: 5190 ± 960 ng/mL
In vivo
  NOAEL at 13 weeks: 200 mg/kg/day
Dogs with CDS [6]
  blood toxicity test: no significant changes
  treatment-related adverse events: did not occur
[7]
  mPGES-1 inhibition, effective concentration: effective at nanomolar concentrations
Stability test
  stable at 25° C. for: at least 60 months

## CC12CC3CC(C)(C1)CC(N)(C3)C2 [memantine]
moderate-to-severe AD
  mental function and ability to perform daily activities: a small improvement

## C#CCN(C)[C@H](C)Cc1ccccc1 [selegiline]
CDS dogs
  cognitive function in CDS dogs: improved within the first 2 weeks
